Reference: patent EP1171107B1, “USE OF A PHARMACEUTICAL COMPOSITION IN THE MANUFACTURE OF A MEDICAMENT FOR THE TREATMENT OF PATHOLOGICAL CONDITIONS OF THE EYE CAUSED BY BACTERIA, VIRUSES, FUNGI, YEASTS AND PROTOZOA” (Dr. GERHARD MANN chem.-pharm. Fabrik GmbH, priority 1999, dated 2000)

How the values were obtained:
Type in all cases: cell-based
S.epidermidis [1] = test: Quantitative germ count (re-isolation, surface method) after inoculating the test preparation; settings: Ausgangskeimzahl 2,1 x 10^5 KBE/ml
Excerpt: (§1) Escherichia (E.coli) Staphylococcus (S.aureus) Streptococcus (Sc.) Pneumoniae Pseudomonas (P.aeruginosa) Staphylococcus (S. epidermidis) Haemophilus (H. influenzae)
(§2) Die verschiedenen Testkeime wurde jeweils aus einem Lyophilisat in NaCl-Peptonpuffer homogenisiert und auf Caseinpepton-Sojymehlpepton. (Caso-) Agar (Fa. bioMérieux; Art. Nr. 43019) bez. Kochblut-Agar (Fa. bioMérieux; Art. Nr. 43109) subkultiviert. Die Teststämme wurden vor Versuchsbeginn durch Erstellen eines biochemischen Profils mittels ATB/Vitek-System (Fa. bioMérieux, Nürtingen) auf Reinheit und Identität überprüft.
(§3) Die Ausgangskeimzahl wurde im Oberflächenverfahren mit Hilfe eines Spiralplaters (Fa. Meintrup, Lähden) ermittelt und ist im einzelnen den Tabellen 1-12 zu entnehmen.
(§4) Die verschiedenen Testsubstanzen a. bis j. wurden jeweils zu 5 ml in sterile Zentrifugenröhrchen abgefüllt und mit ca. 10^5 KBE^*/ml (* = koloniebildende Einheiten) der oben genannten Testkeime kontaminiert. Pro Substanz wurde für jeden Testkeim und jede zu prüfende Testzeit ein separater Ansatz angeimpft, d.h.10 Testsubstanzen zu jeweils 7 Testzeiten und 6 Testkeime (= insgesamt 502 Testansätze). Nach 2, 6, 8, 24, 32, 48 und 72 Stunden wurde dann der jeweilige Testansatz 10 Minuten bei 3000 rpm abzentrifugiert. Der Überstand wurde dekantiert und das Pellet in 5 ml NaCl Peptonpuffer aufgenommen und resuspendiert. Die Suspension wurde erneut 10 Minuten bei 3000 rpm abzentrifugiert und 5 ml NaCl-Peptonpuffer aufgenommen und mittels Vortex homogenisiert.
(§5) Die anschließende Keimzahlbestimmung erfolgte im Oberflächenverfahren durch Ausspiralisieren eines […] Aliquots auf Caso-Agar bzw. für H. influenzae auf Kochblut-Agar. Die Platten wurden bei 33±2°C für max. 4 Tage bebrütet. Die Nachweisgrenze des Verfahrens liegt bei 100 KBE/ml.

P.aeruginosa [2] = test: as above; settings: Ausgangskeimzahl 2,7 x 10^5 KBE/ml
Excerpt: as §1, §2, §3, §4, §5

Sc. pneumoniae [3] = test: as above; settings: Ausgangskeimzahl 3,7 x 10^5 KBE/ml
Excerpt: as §1, §2, §3
as §4, with “Nach 2, 6, 8, 24, 32, 48 und 72 Stunden wurde dann der jeweilige Testansatz 10 Minuten bei 3000 rpm abzentrifugiert.” left out
as §5

E.coli [4] = test: as above; settings: Ausgangskeimzahl 2,7 x 10^5 KBE/ml
Excerpt: as §1, §2, §3
as §4, with “Nach 2, 6, 8, 24, 32, 48 und 72 Stunden wurde dann der jeweilige Testansatz 10 Minuten bei 3000 rpm abzentrifugiert.” left out
as §5

H.influenzae [5] = test: as above; settings: Ausgangskeimzahl 2,8 x 10^5 KBE/ml
Excerpt: as §1, §2, §3
as §4, with “Nach 2, 6, 8, 24, 32, 48 und 72 Stunden wurde dann der jeweilige Testansatz 10 Minuten bei 3000 rpm abzentrifugiert.” left out
as §5

P.aeruginosa [6] = test: Qualitative examination: enrichment of the inoculated test preparation in broth
Excerpt: as §1, §2, §4
(§6) Jeweils 2 ml der Testansätze wurden in 20 ml Caso-Bouillon oder für H. influenzae, in Fildes-Medium der Firma Becton Dickinson, ARt. Nr. 0349-739, angereichert und ebenfalls maximal 4 Tage bei 33± 2°C bebrütet. Ein negatives Ergebnis der Anreicherung belegt die Elimination der inokulierten Keime.

H.influenzae [7] = test: as above
Excerpt: as §1, §2, §4, §6

S.epidermidis [8] = test: as above
Excerpt: as §1, §2
as §4, with “Nach 2, 6, 8, 24, 32, 48 und 72 Stunden wurde dann der jeweilige Testansatz 10 Minuten bei 3000 rpm abzentrifugiert.” left out
as §6

Sc. pneumoniae [9] = test: as above
Excerpt: as §1, §2
as §4, with “Nach 2, 6, 8, 24, 32, 48 und 72 Stunden wurde dann der jeweilige Testansatz 10 Minuten bei 3000 rpm abzentrifugiert.” left out
as §6

S.aureus = test: as above
Excerpt: as §1, §2
as §4, with “Nach 2, 6, 8, 24, 32, 48 und 72 Stunden wurde dann der jeweilige Testansatz 10 Minuten bei 3000 rpm abzentrifugiert.” left out
as §6

E.coli [10] = test: as above
Excerpt: as §1, §2
as §4, with “Nach 2, 6, 8, 24, 32, 48 und 72 Stunden wurde dann der jeweilige Testansatz 10 Minuten bei 3000 rpm abzentrifugiert.” left out
as §6

CCCCCCCCCCCC[N+](C)(C)Cc1ccccc1 [Benzalkoniumchlorid 0,005 Gew.-%, Benzododeciniumchlorid]
Ergebnis der Reisolierung (in KBE/ml) (S.epidermidis [1]; 2 h after inoculation): <100 KBE/ml
Ergebnis der Reisolierung (in KBE/ml) (S.epidermidis [1]; 4 h after inoculation): <100 KBE/ml
Ergebnis der Reisolierung (in KBE/ml) (S.epidermidis [1]; 6 h after inoculation): <100 KBE/ml
Ergebnis der Reisolierung (in KBE/ml) (S.epidermidis [1]; 8 h after inoculation): <100 KBE/ml
Ergebnis der Reisolierung (in KBE/ml) (S.epidermidis [1]; 24 h after inoculation): <100 KBE/ml
Ergebnis der Reisolierung (in KBE/ml) (S.epidermidis [1]; 32 h after inoculation): <100 KBE/ml
Ergebnis der Reisolierung (in KBE/ml) (S.epidermidis [1]; 48 h after inoculation): <100 KBE/ml
Ergebnis der Reisolierung (in KBE/ml) (S.epidermidis [1]; 72 h after inoculation): <100 KBE/ml
Ergebnis der Reisolierung (in KBE/ml) (P.aeruginosa [2]; 2 h after inoculation): <100 KBE/ml
Ergebnis der Reisolierung (in KBE/ml) (P.aeruginosa [2]; 4 h after inoculation): <100 KBE/ml
Ergebnis der Reisolierung (in KBE/ml) (P.aeruginosa [2]; 6 h after inoculation): <100 KBE/ml
Ergebnis der Reisolierung (in KBE/ml) (P.aeruginosa [2]; 8 h after inoculation): <100 KBE/ml
Ergebnis der Reisolierung (in KBE/ml) (P.aeruginosa [2]; 24 h after inoculation): <100 KBE/ml
Ergebnis der Reisolierung (in KBE/ml) (P.aeruginosa [2]; 32 h after inoculation): <100 KBE/ml
Ergebnis der Reisolierung (in KBE/ml) (P.aeruginosa [2]; 48 h after inoculation): <100 KBE/ml
Ergebnis der Reisolierung (in KBE/ml) (P.aeruginosa [2]; 72 h after inoculation): <100 KBE/ml
Ergebnis der Reisolierung (in KBE/ml) (Sc. pneumoniae [3]; 2 h after inoculation): <100 KBE/ml
Ergebnis der Reisolierung (in KBE/ml) (Sc. pneumoniae [3]; 4 h after inoculation): <100 KBE/ml
Ergebnis der Reisolierung (in KBE/ml) (Sc. pneumoniae [3]; 6 h after inoculation): <100 KBE/ml
Ergebnis der Reisolierung (in KBE/ml) (Sc. pneumoniae [3]; 8 h after inoculation): <100 KBE/ml
Ergebnis der Reisolierung (in KBE/ml) (Sc. pneumoniae [3]; 24 h after inoculation): <100 KBE/ml
Ergebnis der Reisolierung (in KBE/ml) (Sc. pneumoniae [3]; 32 h after inoculation): <100 KBE/ml
Ergebnis der Reisolierung (in KBE/ml) (Sc. pneumoniae [3]; 48 h after inoculation): <100 KBE/ml
Ergebnis der Reisolierung (in KBE/ml) (Sc. pneumoniae [3]; 72 h after inoculation): <100 KBE/ml
Ergebnis der Reisolierung (in KBE/ml) (E.coli [4]; 2 h after inoculation): <100 KBE/ml
Ergebnis der Reisolierung (in KBE/ml) (E.coli [4]; 4 h after inoculation): <100 KBE/ml
Ergebnis der Reisolierung (in KBE/ml) (E.coli [4]; 6 h after inoculation): <100 KBE/ml
Ergebnis der Reisolierung (in KBE/ml) (E.coli [4]; 8 h after inoculation): <100 KBE/ml
Ergebnis der Reisolierung (in KBE/ml) (E.coli [4]; 24 h after inoculation): <100 KBE/ml
Ergebnis der Reisolierung (in KBE/ml) (E.coli [4]; 32 h after inoculation): <100 KBE/ml
Ergebnis der Reisolierung (in KBE/ml) (E.coli [4]; 48 h after inoculation): <100 KBE/ml
Ergebnis der Reisolierung (in KBE/ml) (E.coli [4]; 72 h after inoculation): <100 KBE/ml
Ergebnis der Reisolierung (in KBE/ml) (H.influenzae [5]; 2 h after inoculation): <100 KBE/ml
Ergebnis der Reisolierung (in KBE/ml) (H.influenzae [5]; 4 h after inoculation): <100 KBE/ml
Ergebnis der Reisolierung (in KBE/ml) (H.influenzae [5]; 6 h after inoculation): <100 KBE/ml
Ergebnis der Reisolierung (in KBE/ml) (H.influenzae [5]; 8 h after inoculation): <100 KBE/ml
Ergebnis der Reisolierung (in KBE/ml) (H.influenzae [5]; 24 h after inoculation): <100 KBE/ml
Ergebnis der Reisolierung (in KBE/ml) (H.influenzae [5]; 32 h after inoculation): <100 KBE/ml
Ergebnis der Reisolierung (in KBE/ml) (H.influenzae [5]; 48 h after inoculation): <100 KBE/ml
Ergebnis der Reisolierung (in KBE/ml) (H.influenzae [5]; 72 h after inoculation): <100 KBE/ml
Ergebnis der Reisolierung qualitiativ (+/-) nach Anreicherung (P.aeruginosa [6]; 2 h after inoculation): -
Ergebnis der Reisolierung qualitiativ (+/-) nach Anreicherung (P.aeruginosa [6]; 4 h after inoculation): -
Ergebnis der Reisolierung qualitiativ (+/-) nach Anreicherung (P.aeruginosa [6]; 6 h after inoculation): -
Ergebnis der Reisolierung qualitiativ (+/-) nach Anreicherung (P.aeruginosa [6]; 8 h after inoculation): -
Ergebnis der Reisolierung qualitiativ (+/-) nach Anreicherung (P.aeruginosa [6]; 24 h after inoculation): -
Ergebnis der Reisolierung qualitiativ (+/-) nach Anreicherung (P.aeruginosa [6]; 32 h after inoculation): -
Ergebnis der Reisolierung qualitiativ (+/-) nach Anreicherung (P.aeruginosa [6]; 48 h after inoculation): -
Ergebnis der Reisolierung qualitiativ (+/-) nach Anreicherung (P.aeruginosa [6]; 72 h after inoculation): -
Ergebnis der Reisolierung qualitiativ (+/-) nach Anreicherung (H.influenzae [7]; 2 h after inoculation): -
Ergebnis der Reisolierung qualitiativ (+/-) nach Anreicherung (H.influenzae [7]; 4 h after inoculation): -
Ergebnis der Reisolierung qualitiativ (+/-) nach Anreicherung (H.influenzae [7]; 6 h after inoculation): -
Ergebnis der Reisolierung qualitiativ (+/-) nach Anreicherung (H.influenzae [7]; 8 h after inoculation): -
Ergebnis der Reisolierung qualitiativ (+/-) nach Anreicherung (H.influenzae [7]; 24 h after inoculation): -
Ergebnis der Reisolierung qualitiativ (+/-) nach Anreicherung (H.influenzae [7]; 32 h after inoculation): -
Ergebnis der Reisolierung qualitiativ (+/-) nach Anreicherung (H.influenzae [7]; 48 h after inoculation): -
Ergebnis der Reisolierung qualitiativ (+/-) nach Anreicherung (H.influenzae [7]; 72 h after inoculation): -
Ergebnis der Reisolierung qualitiativ (+/-) nach Anreicherung (S.epidermidis [8]; 2 h after inoculation): -
Ergebnis der Reisolierung qualitiativ (+/-) nach Anreicherung (S.epidermidis [8]; 4 h after inoculation): -
Ergebnis der Reisolierung qualitiativ (+/-) nach Anreicherung (S.epidermidis [8]; 6 h after inoculation): -
Ergebnis der Reisolierung qualitiativ (+/-) nach Anreicherung (S.epidermidis [8]; 8 h after inoculation): -
Ergebnis der Reisolierung qualitiativ (+/-) nach Anreicherung (S.epidermidis [8]; 24 h after inoculation): -
Ergebnis der Reisolierung qualitiativ (+/-) nach Anreicherung (S.epidermidis [8]; 32 h after inoculation): -
Ergebnis der Reisolierung qualitiativ (+/-) nach Anreicherung (S.epidermidis [8]; 48 h after inoculation): -
Ergebnis der Reisolierung qualitiativ (+/-) nach Anreicherung (S.epidermidis [8]; 72 h after inoculation): -
Ergebnis der Reisolierung qualitiativ (+/-) nach Anreicherung (Sc. pneumoniae [9]; 2 h after inoculation): -
Ergebnis der Reisolierung qualitiativ (+/-) nach Anreicherung (Sc. pneumoniae [9]; 4 h after inoculation): -
Ergebnis der Reisolierung qualitiativ (+/-) nach Anreicherung (Sc. pneumoniae [9]; 6 h after inoculation): -
Ergebnis der Reisolierung qualitiativ (+/-) nach Anreicherung (Sc. pneumoniae [9]; 8 h after inoculation): -
Ergebnis der Reisolierung qualitiativ (+/-) nach Anreicherung (Sc. pneumoniae [9]; 24 h after inoculation): -
Ergebnis der Reisolierung qualitiativ (+/-) nach Anreicherung (Sc. pneumoniae [9]; 32 h after inoculation): -
Ergebnis der Reisolierung qualitiativ (+/-) nach Anreicherung (Sc. pneumoniae [9]; 48 h after inoculation): -
Ergebnis der Reisolierung qualitiativ (+/-) nach Anreicherung (Sc. pneumoniae [9]; 72 h after inoculation): -
Ergebnis der Reisolierung qualitiativ (+/-) nach Anreicherung (S.aureus; 2 h after inoculation): -
Ergebnis der Reisolierung qualitiativ (+/-) nach Anreicherung (S.aureus; 4 h after inoculation): -
Ergebnis der Reisolierung qualitiativ (+/-) nach Anreicherung (S.aureus; 6 h after inoculation): -
Ergebnis der Reisolierung qualitiativ (+/-) nach Anreicherung (S.aureus; 8 h after inoculation): -
Ergebnis der Reisolierung qualitiativ (+/-) nach Anreicherung (S.aureus; 24 h after inoculation): -
Ergebnis der Reisolierung qualitiativ (+/-) nach Anreicherung (S.aureus; 32 h after inoculation): -
Ergebnis der Reisolierung qualitiativ (+/-) nach Anreicherung (S.aureus; 48 h after inoculation): -
Ergebnis der Reisolierung qualitiativ (+/-) nach Anreicherung (S.aureus; 72 h after inoculation): -
Ergebnis der Reisolierung qualitiativ (+/-) nach Anreicherung (E.coli [10]; 2 h after inoculation): -
Ergebnis der Reisolierung qualitiativ (+/-) nach Anreicherung (E.coli [10]; 4 h after inoculation): -
Ergebnis der Reisolierung qualitiativ (+/-) nach Anreicherung (E.coli [10]; 6 h after inoculation): -
Ergebnis der Reisolierung qualitiativ (+/-) nach Anreicherung (E.coli [10]; 8 h after inoculation): -
Ergebnis der Reisolierung qualitiativ (+/-) nach Anreicherung (E.coli [10]; 24 h after inoculation): -
Ergebnis der Reisolierung qualitiativ (+/-) nach Anreicherung (E.coli [10]; 32 h after inoculation): -
Ergebnis der Reisolierung qualitiativ (+/-) nach Anreicherung (E.coli [10]; 48 h after inoculation): -
Ergebnis der Reisolierung qualitiativ (+/-) nach Anreicherung (E.coli [10]; 72 h after inoculation): -
